Test results as given in patent US20080220446A1, “Method for Detecting and/or Removing Protein and/or Peptide Comprising a Cross-Beta Structure From an Aqueous Solution Comprising a Protein” (priority 2005, published 2008).
Blank lines part the entries; values can stand above or below the compound they belong to.

Experiments:
[1] = molecular target: T1, LRP cl-IV binding to BSA-AGE (Bos taurus, UniProt P02769); test: ELISA, interference with LRP cl-IV binding to BSA-AGE; parameters: species or system human; conditions: concentration series, 50 times diluted LRP cl-IV medium
T1 construct: made in house; host or cells: HEK293E/S (LRP cl-IV, culture supernatant)
Description: To test whether amyloid-like crossbeta structure binding compounds tPA, Congo red, Thioflavin T and Thioflavin S interfere with LRP cl-IV binding to BSA-AGE, concentration series of the potential inhibitory amyloid binding moieties were tested in the presence of 50 times diluted medium containing LRP cl-IV. The following inhibitors were used: tPA, Congo red, Thioflavin T (ThT) and Thioflavin S (ThS). As a control to tPA, K2P tPA, which lacks the amyloid-like misfolded protein binding finger domain, was included in the analyses. The influence of tPA and K2P tPA was tested in the presence of 10 mM ε-amino caproic acid to avoid binding of the kringle2 domain of tPA and K2P tPA to lysine- and arginine residues. Binding buffer and K2P tPA serve as negative controls in these inhibition studies. The concentration series was measured in triplicate, the values averaged and standard deviations calculated. Background signals obtained with buffer-coated wells were subtracted. Signals obtained with binding of LRP cluster IV to BSA-AGE was set arbitrarily to a reference binding of 100% and signals obtained with the concentration series of misfolded protein binding moieties and K2P tPA were calculated based on this set reference.

[2] = system: platelets; test: Aggregometric assay with washed platelets; assay type: cell-based, human; conditions: 200 μM
Description: The presence of protein(s) and/or peptide(s) with amyloid-like misfolded protein conformation on activated blood platelets was tested with washed platelets in an aggregometric assay. Freshly drawn human aspirin free blood was mixed gently with citrate buffer to avoid coagulation. Blood was spinned for 15 minutes at 150*g at 20° C. and supernatant was collected; platelet rich plasma (PRP). […] After spinning down the platelets upon centrifugation for 15 minutes at 330*g at 20° C., the pellet was resuspended in HEPES-Tyrode buffer pH 6.5. Prostacyclin was added to a final concentration of 10 ng/ml, and the solution was centrifuged for 15 minutes at 330*g at 20° C., with a soft brake. The pellet was resuspended in HEPES-Tyrode buffer pH 7.2 in a way that the final platelet number was adjusted to 200,000/μl. Platelets were kept at 37° C. for at least 30 minutes, before use in the assays, to ensure that they were in the resting state.
For the aggregometric assays, 400 μl platelet solution was added to a glass tube with 100 μl containing the agonist of interest, fibrinogen and CaCl2. Final concentrations of fibrinogen and CaCl2 were 0.5 mg/ml and 3 mM, respectively. A stirring magnet was added and the apparatus (Whole-blood aggregometer, Chrono-log, Havertown, Pa., USA) was blanked. Aggregation was followed in time by measuring the absorbance of the solution, that will decrease in time upon platelet aggregation. As a positive control, 0.5 U/ml thrombin was used, or TRAP. Aggregation was followed for 10 minutes. Influence of 200 μM Thioflavin T, 200 μM Congo red or 1 μM tPA on platelet aggregation was analyzed.

[3] = system: tPA binding to amyloid-like aggregates; conditions: ELISAs; patent application P57716EP00 and unpublished data; cited from earlier work
[4] = molecular target: T2, tPA binding to immobilized Hb-AGE (Homo sapiens, UniProt P68871+P69905); test: ELISA, influence of ellagic acid on tPA binding to immobilized Hb-AGE
T2 construct: purchased tPA: Boehringer Ingelheim (Actilyse); Hb: Sigma-Aldrich Hb: H7379
Description: Determination of the influence of ellagic acid on the binding of a suboptimal concentration of tPA to a refined concentration of immobilized Hb-AGE. Parameter: a fixed concentration of tPA, in PBS with 0.1% (v/v) Tween20, 10 mM εACA and 10% DMSO, mixed with ellagic acid. As a positive control, tPA in binding buffer with 10% DMSO was used. This binding was set to 100% and values obtained after co-incubation of Hb-AGE with tPA with ellagic acid, were scaled accordingly. Binding experiments were performed in single wells, in a duplicate experiment. Binding data obtained with this duplicate experiment was averaged. Enhancement of tPA binding was arbitrarily set to values>100%. Inhibition of tPA binding to misfolded Hb-AGE was arbitrarily set to values smaller than 50%. With the chosen experimental lay-out, it can not be distinguished whether ellagic acid influences the interaction between tPA and Hb-AGE by binding to Hb-AGE only or by binding to tPA only or by binding to both tPA and Hb-AGE.
In a next series of experiments, the ability of ellagic acid that interacts with tPA and/or Hb-AGE, to bind to immobilized fb-AGE, heat-denatured misfolded ovalbumin and amyloid-β was analyzed. In a first experiment, the coated misfolded Hb-AGE was first incubated with ellagic acid. After washing, tPA binding was assessed. Similar binding assays are performed with misfolded OVA and Aβ. […]

[5] = molecular target: T3, tPA binding to DOVA (Gallus gallus, UniProt P01012); test: ELISA, influence of ellagic acid on tPA binding to immobilized misfolded ovalbumin
T3 construct: purchased tPA: Boehringer Ingelheim (Actilyse); OVA: Sigma OVA: A-7641
T3 sequence (P01012 2-386 limits assumed): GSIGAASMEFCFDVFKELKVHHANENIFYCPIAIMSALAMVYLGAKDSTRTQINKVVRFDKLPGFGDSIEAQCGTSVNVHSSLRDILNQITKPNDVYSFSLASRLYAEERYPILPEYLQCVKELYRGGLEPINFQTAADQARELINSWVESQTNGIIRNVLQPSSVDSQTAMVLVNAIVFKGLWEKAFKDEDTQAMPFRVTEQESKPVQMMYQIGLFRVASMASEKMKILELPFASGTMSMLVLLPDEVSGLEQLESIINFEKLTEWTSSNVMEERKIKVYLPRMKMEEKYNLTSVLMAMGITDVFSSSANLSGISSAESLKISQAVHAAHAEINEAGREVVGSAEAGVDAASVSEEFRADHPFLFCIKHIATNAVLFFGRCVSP
Description: In a next series of experiments, the ability of ellagic acid that interacts with tPA and/or Hb-AGE, to bind to immobilized fb-AGE, heat-denatured misfolded ovalbumin and amyloid-β was analyzed. In a first experiment, the coated misfolded Hb-AGE was first incubated with ellagic acid. After washing, tPA binding was assessed. Similar binding assays are performed with misfolded OVA and Aβ. Finally, concentration series of ellagic acid are used in the binding studies.
Ellagic acid was co-incubated with 0.5 nM tPA. Controls: 1 mM ThT with 0.5 nM tPA, 0.5 mM CR with 0.5 nM tPA, 0.5 nM tPA without compound and buffer without tPA. Next, coated ELISA plates were first -pre-incubated with ellagic acid (for 30 minutes) followed by tPA incubation (for 30 minutes). For similar ELISA's with DOVA and Aβ(1-40) E22Q, 1 μg/ml DOVA or Aβ was coated and overlayed with 80 nM tPA. Subsequently, DOVA or Aβ coated wells and buffer-coated control wells were first incubated with 500 μg/ml ellagic acid, followed by an overlay with tPA.

[6] = molecular target: T4, Hb-AGE (Homo sapiens, UniProt P68871+P69905); test: Binding of Hb-AGE from solution to immobilized ellagic acid; conditions: Hb-AGE 10 μg/ml, background subtracted
T4 construct: purchased Sigma-Aldrich H7379
Description: (§1) To test the ability of ellagic acid to bind to misfolded proteins, ellagic acid was immobilized at 100 μg/ml in the wells of a 96-wells Greiner Microlon high binding plate and a Nunc Maxisorp plate. Ellagic acid was coated in 100 mM NaHCO3 pH 9.6, 50 μp/well, 1 h at room temperature with agitation. As a control for subtraction of background signals of binding of misfolded proteins to wells without ellagic acid, wells were coated with buffer only. After blocking of the plates, wells were overlayed with solutions of 0.1/1/10 μg/ml Hb-AGE or 10/100 μg/ml Aβ, in binding buffer (PBS/0.1% Tween20). After washing, binding of Hb-AGE was assessed by overlaying wells with 1 μg/ml hybridoma antibody 4B5, which binds to glycations (^1), followed by RAMPO. Binding of Aβ was visualized using 500× diluted anti-Aβ antibodies (mouse antibody beta-amyloid Clone 6F/3D #M0872, lot 00003503, DAKOCytomation; β-amyloid (H-43) SC-9129, 200 μg/ml rabbit polyclonal IgG, Santa Cruz Biotechnology) and RAMPO/SWARPO in a 1:1 ratio. Finally, wells were overlayed with OPD/H2O2 solution, and H2SO4, before absorbance readings at 490 nm.

[7] = molecular target: T5, Aβ (Homo sapiens, UniProt P05067, E693Q); test: Binding of Aβ from solution to immobilized ellagic acid; conditions: Nunc Maxisorp, Aβ 100 μg/ml, background subtracted
T5 construct: Human amyloid-β (Ap) (1-40) Dutch type
Description: as §1

[8] = molecular target: T6, fibronectin F4,5 (Homo sapiens, UniProt P02751); test: Affinity determination ELISA, fibronectin F4,5 on coated (mis)folded proteins; assay type: binding; conditions: coated protein as labelled
T6 construct: human fibronectin finger 4,5 (Fn F4,5) fragment; made in house; host or cells: HEK293E
Source text: (§2) Synthetic genes of human BiP, human fibronectin finger 4,5 (Fn F4,5) fragment, and human tissue-type plasminogen activator finger EGF (tPA F-EGF) fragment were ordered from Geneart (Regensburg, Germany). These DNA constructs were digested using BamHI and NotI, and ligated into vector pABC674 (ABC-expression facility, Utrecht University, The Netherlands), which contains a carboxy-terminal FLAG-tag—His-tag. HEK293E cells were transiently transfected with these constructs using the polyethylene-imine method, and grown for 5-6 days.
(§3) Denatured proteins and their native controls BSA (Sigma, A7906), glycated BSA, Hb (Sigma, H7605), glycated Hb, ovalbumin (Sigma, A6741), heat-denatured misfolded ovalbumin, human γ-globulins (Sigma, G4386), heat-denatured misfolded γ-globulins, alkyl-γ-globulins, lysozyme (ICN Biochemicals, 100831) and alkyl-lysozyme were coated on ELISA plates (Greiner Microlon high-binding, 655092) in 50 mM NaHCO3-buffer pH 9.6. The plates were blocked using Blocking reagent (Roche 1112589). […] Bound protein is detected by the FLAG-tag using 1:3000 anti-FLAG-HRP (Sigma A-8592) in PBS-T, or by 1:1000 Ni-NTA-HRP (Qiagen 34530) in PBS-T. The HRP reaction Is performed using the TMB substrate (Biosource 4501103 or Tebu Bio 101TMB100-500), stopped using 10% H2SO4 and absorbance was measured at 450 nm.

[9] = molecular target: T7, BiP (Homo sapiens, UniProt P11021); test: Affinity determination ELISA, BiP on coated (mis)folded proteins; assay type: binding; conditions: coated protein as labelled
T7 construct: made in house; host or cells: HEK293E
Source text: as §2, §3

T4 sequence (P69905 2-142 limits assumed): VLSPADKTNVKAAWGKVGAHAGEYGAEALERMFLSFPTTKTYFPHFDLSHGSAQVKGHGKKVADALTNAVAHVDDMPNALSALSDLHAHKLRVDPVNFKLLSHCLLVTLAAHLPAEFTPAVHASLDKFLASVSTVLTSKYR
T4 sequence (P68871 2-147 limits assumed): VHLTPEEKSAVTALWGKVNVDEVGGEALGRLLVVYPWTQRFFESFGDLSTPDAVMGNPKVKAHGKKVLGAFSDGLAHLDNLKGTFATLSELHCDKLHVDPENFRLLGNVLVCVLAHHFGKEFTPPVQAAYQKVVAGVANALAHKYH
T2 sequence (P69905 2-142 limits assumed): as the sequence (P69905 2-142 limits assumed) above
T2 sequence (P68871 2-147 limits assumed): as the sequence (P68871 2-147 limits assumed) above
T7 sequence (P11021 19-654): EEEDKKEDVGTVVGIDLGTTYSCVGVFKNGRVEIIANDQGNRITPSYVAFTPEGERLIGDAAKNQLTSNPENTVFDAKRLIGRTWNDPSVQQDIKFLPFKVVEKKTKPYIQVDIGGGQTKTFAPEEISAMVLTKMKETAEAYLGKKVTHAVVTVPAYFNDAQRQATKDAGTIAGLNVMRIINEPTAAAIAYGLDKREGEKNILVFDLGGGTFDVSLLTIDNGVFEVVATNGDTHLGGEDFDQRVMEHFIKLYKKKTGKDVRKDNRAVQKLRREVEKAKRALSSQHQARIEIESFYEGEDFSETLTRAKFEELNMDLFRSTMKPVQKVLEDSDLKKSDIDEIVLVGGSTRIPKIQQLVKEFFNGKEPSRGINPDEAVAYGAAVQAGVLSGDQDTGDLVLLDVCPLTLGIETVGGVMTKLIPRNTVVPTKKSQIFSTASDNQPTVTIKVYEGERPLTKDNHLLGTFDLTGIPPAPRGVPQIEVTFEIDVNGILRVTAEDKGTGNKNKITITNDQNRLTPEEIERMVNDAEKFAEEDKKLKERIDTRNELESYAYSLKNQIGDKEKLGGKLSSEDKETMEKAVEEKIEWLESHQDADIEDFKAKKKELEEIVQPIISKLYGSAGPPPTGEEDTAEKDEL
T1 sequence (P02769 25-607): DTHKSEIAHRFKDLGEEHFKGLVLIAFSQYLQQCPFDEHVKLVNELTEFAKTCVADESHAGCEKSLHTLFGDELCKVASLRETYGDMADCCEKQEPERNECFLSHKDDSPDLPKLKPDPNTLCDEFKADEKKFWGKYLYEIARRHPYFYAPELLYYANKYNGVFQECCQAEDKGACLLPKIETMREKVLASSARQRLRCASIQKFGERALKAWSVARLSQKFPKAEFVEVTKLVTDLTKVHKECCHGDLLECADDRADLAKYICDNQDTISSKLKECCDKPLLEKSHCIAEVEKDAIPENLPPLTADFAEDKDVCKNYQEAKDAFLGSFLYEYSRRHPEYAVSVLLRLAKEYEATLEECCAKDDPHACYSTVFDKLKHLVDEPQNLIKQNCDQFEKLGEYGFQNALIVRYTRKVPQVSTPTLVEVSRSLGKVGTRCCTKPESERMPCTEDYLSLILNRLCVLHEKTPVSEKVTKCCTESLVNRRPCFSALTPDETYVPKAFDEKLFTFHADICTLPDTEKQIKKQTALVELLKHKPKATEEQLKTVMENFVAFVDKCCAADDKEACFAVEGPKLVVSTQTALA
T6 sequence (P02751 182-276 limits assumed): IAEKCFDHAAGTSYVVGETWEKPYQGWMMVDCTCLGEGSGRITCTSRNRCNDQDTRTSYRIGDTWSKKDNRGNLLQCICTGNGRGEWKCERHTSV

- influence on binding of LRP cl-IV to BSA-AGE [1]: do not interfere
Compound: Cc1ccc2c(c1)sc(-c1ccc(N(C)C)cc1)[n+]2C.[Cl-] [ThT, Thioflavin T]
- inhibition of platelet aggregation [2]: up to 45%
- competition for tPA binding to amyloid-like aggregates [3]: did not inhibit tPA binding at all

Compound: O=c1oc2c(O)c(O)cc3c(=O)oc4c(O)c(O)cc1c4c23 [ellagic acid]
- influence on tPA binding to Hb-AGE ([4]; ELISA): stimulator of tPA binding
- direct interaction with immobilized misfolded protein ([4]; pre-incubation of coated Hb-AGE or misfolded OVA, then tPA): binds directly to misfolded protein
- influence on tPA binding to DOVA [5]: stimulator of tPA binding
- Signal ([6]; Greiner Microlon): 0.13 a.u.
- Signal ([6]; Nunc Maxisorp): 0.15 a.u.
- Signal [7]: 0.054 a.u.

- affinity for fibronectin F4,5 [8]: high affinity
Compound: Freshly dissolved lysozyme: lysozyme (ICN Biochemicals)

- binding of BiP [9]: not
Compound: heat-denatured BSA: heat-denatured bovine serum albumin
